Data published in ChEMBL document CHEMBL1201862, “PubChem BioAssay data set” (2004).
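Grown in 96-well plates, cells were treated for 48 hours with each compound at five concentrations. Insufficient inhibition: endpoint recorded as highest concentration tested. GI50 marks 50% less growth.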 Active and inactive are the calls of the source. Cut-off read from the data, not from the text of the source: active = GI50 up to about 1.1 µM and inactive = higher.

What was measured:
Assay in all cases: growth of human tumour cells (NCI), 48 h
MDA-N = test system: MDA-N
MDA-MB-231 = test system: MDA-MB-231
UACC-257 = test system: UACC-257
SK-MEL-5 = test system: SK-MEL-5
NCI/ADR-RES = test system: NCI/ADR-RES
M14 = test system: M14
HCC 2998 = test system: HCC 2998
HCT-116 = test system: HCT-116
SF-539 = test system: SF-539
SNB-19 = test system: SNB-19
SK-MEL-28 = test system: SK-MEL-28
RXF 393 = test system: RXF 393
HOP-92 = test system: HOP-92
HT-29 = test system: HT-29
CCRF-CEM = test system: CCRF-CEM
NCI-H23 = test system: NCI-H23
NCI-H226 = test system: NCI-H226
A498 = test system: A498
OVCAR-3 = test system: OVCAR-3
KM12 = test system: KM12
SW-620 = test system: SW-620
LOX IMVI = test system: LOX IMVI
OVCAR-5 = test system: OVCAR-5
NCI-H460 = test system: NCI-H460
IGROV-1 = test system: IGROV-1
BT-549 = test system: BT-549
ACHN = test system: ACHN
SN12C = test system: SN12C
A549 = test system: A549
DU-145 = test system: DU-145
UO-31 = test system: UO-31
OVCAR-8 = test system: OVCAR-8
OVCAR-4 = test system: OVCAR-4
COLO 205 = test system: COLO 205
UACC-62 = test system: UACC-62
K562 = test system: K562
RPMI-8226 = test system: RPMI-8226
EKVX = test system: EKVX
SF-295 = test system: SF-295
786-0 = test system: 786-0
PC-3 = test system: PC-3
MCF7 = test system: MCF7
T47D = test system: T47D
HCT-15 = test system: HCT-15
MOLT-4 = test system: MOLT-4
SK-MEL-2 = test system: SK-MEL-2
HOP-62 = test system: HOP-62
SR = test system: SR
CAKI-1 = test system: CAKI-1
SNB-75 = test system: SNB-75
MDA-MB-435 = test system: MDA-MB-435
U-251 = test system: U-251
Malme-3M = test system: Malme-3M
SF-268 = test system: SF-268
TK-10 = test system: TK-10
Hs-578T = test system: Hs-578T
SK-OV-3 = test system: SK-OV-3
HL-60 = test system: HL-60
NCI-H522 = test system: NCI-H522

Measured: GI50

CC1(C)OCC2OC3([C@H](O)CCO)OC(C)(C)OC3C2O1 (some centres not stated)
inactive: MDA-N > 100 µM | MDA-MB-231 > 100 µM | UACC-257 > 100 µM | SK-MEL-5 > 100 µM | NCI/ADR-RES > 100 µM | M14 > 100 µM | HCC 2998 > 100 µM | HCT-116 > 100 µM | SF-539 > 100 µM | SNB-19 > 100 µM | SK-MEL-28 > 100 µM | RXF 393 > 100 µM | HOP-92 > 100 µM | HT-29 > 100 µM | CCRF-CEM > 100 µM | NCI-H23 > 100 µM | NCI-H226 > 100 µM | A498 > 100 µM | OVCAR-3 > 100 µM | KM12 > 100 µM | SW-620 > 100 µM | LOX IMVI > 100 µM | OVCAR-5 > 100 µM | NCI-H460 > 100 µM | IGROV-1 > 100 µM | BT-549 > 100 µM | ACHN > 100 µM | SN12C > 100 µM | A549 > 100 µM | DU-145 > 100 µM | UO-31 > 100 µM | OVCAR-8 > 100 µM | OVCAR-4 > 100 µM | COLO 205 > 100 µM | UACC-62 > 100 µM | K562 > 100 µM | RPMI-8226 > 100 µM | EKVX > 100 µM | SF-295 > 100 µM | 786-0 > 100 µM | PC-3 > 100 µM | MCF7 > 100 µM | T47D > 100 µM | MOLT-4 > 100 µM | SK-MEL-2 > 100 µM | HOP-62 > 100 µM | SR > 100 µM | CAKI-1 > 100 µM | SNB-75 > 100 µM | MDA-MB-435 > 100 µM | U-251 > 100 µM
> 100 µM: HCT-15

O=C(CC(c1ccccc1)C(C(=O)c1ccncc1)C(CC(=O)c1ccncc1)c1ccccc1)c1ccncc1 (configuration not stated)
inactive: Malme-3M > 100 µM | MDA-MB-231 31.6 µM | SF-268 32.4 µM | UACC-257 > 100 µM | SK-MEL-5 > 10 µM | NCI/ADR-RES 49.3 µM | M14 > 100 µM | HCC 2998 > 100 µM | HCT-116 > 100 µM | SNB-19 39 µM | SK-MEL-28 > 100 µM | TK-10 47.5 µM | HOP-92 48.3 µM | HT-29 > 100 µM | CCRF-CEM > 100 µM | NCI-H23 35 µM | NCI-H226 38.5 µM | A498 71.8 µM | Hs-578T 30 µM | OVCAR-3 75.9 µM | KM12 > 100 µM | SW-620 > 100 µM | LOX IMVI > 100 µM | OVCAR-5 > 100 µM | NCI-H460 89.5 µM | IGROV-1 28.4 µM | BT-549 18.5 µM | ACHN 70 µM | A549 26.7 µM | DU-145 96.6 µM | UO-31 > 100 µM | OVCAR-8 35.6 µM | SK-OV-3 29.2 µM | OVCAR-4 > 10 µM | COLO 205 > 100 µM | HL-60 > 100 µM | UACC-62 86.1 µM | RPMI-8226 > 100 µM | EKVX 34.6 µM | SF-295 29.8 µM | 786-0 68.2 µM | PC-3 46.2 µM | T47D 29.4 µM | MOLT-4 > 100 µM | SK-MEL-2 78.7 µM | HOP-62 44.5 µM | SR > 100 µM | CAKI-1 > 100 µM | SNB-75 23.7 µM | MDA-MB-435 > 100 µM | U-251 42.8 µM
> 100 µM: HCT-15

COc1ccc2c(c1)OCC1Cc3ccccc3OC21 (configuration not stated)
> 100 µM: HCT-15
inactive: MDA-N > 10 µM | Malme-3M > 100 µM | MDA-MB-231 > 100 µM | SF-268 > 100 µM | UACC-257 52 µM | SK-MEL-5 > 10 µM | NCI/ADR-RES > 100 µM | M14 69.5 µM | HCC 2998 > 100 µM | HCT-116 > 100 µM | SF-539 > 100 µM | TK-10 > 100 µM | HOP-92 > 100 µM | HT-29 > 100 µM | CCRF-CEM > 100 µM | NCI-H23 > 100 µM | NCI-H226 > 100 µM | A498 > 10 µM | OVCAR-3 > 100 µM | KM12 74 µM | SW-620 > 100 µM | LOX IMVI > 100 µM | OVCAR-5 > 100 µM | IGROV-1 > 100 µM | BT-549 > 100 µM | ACHN > 100 µM | SN12C > 100 µM | A549 > 100 µM | DU-145 > 100 µM | UO-31 > 100 µM | OVCAR-8 > 100 µM | SK-OV-3 > 100 µM | COLO 205 > 100 µM | HL-60 > 100 µM | UACC-62 > 100 µM | K562 > 100 µM | RPMI-8226 75.7 µM | EKVX 49.9 µM | NCI-H522 > 100 µM | SF-295 > 100 µM | 786-0 > 100 µM | PC-3 98.4 µM | MCF7 > 100 µM | T47D > 100 µM | MOLT-4 54.1 µM | SK-MEL-2 > 100 µM | HOP-62 > 100 µM | SR > 100 µM | CAKI-1 > 100 µM | SNB-75 > 100 µM | MDA-MB-435 > 100 µM | U-251 > 10 µM
